From patent publication US10857107B2, “Cannabinoid-containing complex mixtures for the treatment of mast cell-associated or basophil-mediated inflammatory disorders” (priority 2017, dated 2020) come the findings set out here.

Entries after “also recorded” stand apart in the source; their conditions may differ. Where two headings read alike, the source gives them in different places. Bounds are passed on as bounds.

By inhibition is commonly meant the share of the control response that was lost under treatment. Usually IC50 stands for the concentration that gives 50% inhibition.

What all share (format): cell-based
The test system of assay [1] is mast cells (from a mast cell line, RBL2H3). The assay can be described thus: FcεRI ligation-induced mast cell degranulation measured by histamine release (ELISA). The conditions noted are these: nanomolar concentration; compared to PMA/Iomomycin (100%). (ELISA stands for enzyme-linked immunosorbent assay.)
For assay [2], the system named is RBL2H3 cells. The assay can be described thus: FcεRI-induced degranulation with CBG/CBD, FAAH inhibitor or PDEI pre-incubation (beta-hexoaseaminidase assay). The conditions noted are these: for Outcome (normalized cellular degranulation response): T60. The protocol:
Experiments were conducted to test the hypothesis that CBG-mediated anti-inflammatory effects, i.e., suppression of degranulation, is by increase of intracellular cAMP and the increase of intracellular cAMP results from CBG's antagonizing effects on the interaction between AEA and CB1/2 receptors. To test this hypothesis, the ability of CBG to decrease FcεRI-induced degranulation was assessed. Mast cells were incubated with or without CBG before addition of FcεRI. An FAAH inhibitor was used as a control to increase the levels of AEA and thus saturate the CB1/2 receptors, resulting in decreased cAMP. PDEI was used as a control to directly increase the levels of intracellular cAMP. Cells were also incubated with CBD alone or CBG and CBD to assess the synergistic effects of CBD and CBG.
RBL2H3 cells were pre-incubated for 3 h at 37° C. at with (i) 10 μM FAAH inhibitor LY2183240/PF750 cocktail, (ii) 10 μM PDEI 3-isobutyl-1-methylxanthine (IBMX), or (iii) vehicle (Table 3). Vehicle or 300 nM CBG (30% of the CBG dose previously determined to cause maximal enhancement of the suppressive effect of CBD) was applied to Groups D-F and J-I, the first—one hour prior to FcεRI-induction—and the second—two hour prior to FcεRI-induction (T0, antigen), and remained throughout the course of the experiment. Vehicle was DMSO, methanol, or PBS. 10 μM CBD was additionally added to Groups D-I, 20 minutes prior to FcεRI-induction of degranulation. Cellular degranulation was measured using a beta-hexoaseaminidase assay at 1 h post-induction (T60). Replicates were done in triplicate and averaged. Degranulation of each of the groups was normalized to Row L. The outcome data presented in the column “Outcome” of Table 3 is the normalized cellular degranulation response of each averaged group. Group ABC was p<0.005 relative to Group LMN. Group GHI was p<0.005 relative to Group LMN. Row F had no significant difference relative to Row D. Row E was p<0.05 relative to Row D.

The test system of assay [3] is mast cells (from a mast cell line, RBL2H3). The assay can be described thus: FcεRI ligation-induced mast cell degranulation measured by histamine release (ELISA). The conditions noted are these: for inhibition at 10 µM: Rattus norvegicus; for anti-inflammatory effects on mast cell degranulation (in words): individual compound alone, 10 μM, histamine release; for increase of FcεRI ligation-induced histamine secretion: compound alone at 10 μM (FIG. 5). As for the experimental part:
For the FcεRI assay, mast cells (from a mast cell line, RBL2H3) were plated in cluster plates at 5×10^4 cells/well. Monolayers were washed and incubated in 200 μl Tyrode's buffer. The mast cells were then primed with 1 μg/ml IgE-anti-DNP antibodies for 16 hours. The cells were then washed three times and a cannabinoid-containing complex mixture, prepared as above-described, was applied. The tested complex mixtures were applied in an amount calculated to expose the mast cells to 10 μM of cannabidiol and 10 μM of each minor cannabinoid or terpene component. Control for maximal FcεRI ligation-induced degranulation included no cannabinoid-containing complex mixture.
After 10 minutes, 250 ng/ml of DNP-BSA was applied to ligate FcεRI molecules on the mast cell surface.
Mast cell culture medium was collected 60 minutes after exposure to DNP-BSA with or without a tested cannabinoid-containing complex mixture. Degranulation of the mast cells was tested by measuring histamine release using a commercial ELISA kit (e.g., histamine ELISA kit available from ENZO Life Sciences, Inc., Rocky Mountain Diagnostics, Inc., etc.).
Mast cell degranulation for each tested complex mixture was measured based on the amount of histamine release and is presented as % histamine release compared to histamine release in response to PMA/Ionomycin (100%). Each complex mixture was tested in twenty-four (8×3) independent experiments and data from the twenty four independent experiments were averaged. The averaged values are presented as a bar for each complex mixture in FIG. 2. Standard deviations are also provided in the graph.
The % degranulation in response to each cannabinoid-containing complex mixture was used to calculate % inhibition of degranulation by subtracting the % degranulation from 100%.
Anti-inflammatory effects of (i) each major cannabinoid, (ii) each minor cannabinoid, and (iii) each selected terpene, were assessed based on their inhibition of FcεRI-induced mast cell degranulation by measuring histamine release as described above.
Their anti-inflammatory effects are presented as % reduction of histamine release in the presence of the tested compound compared to the histamine release in the presence of PMA/Ionomycin (0%). Standard deviations of the experimental data are also provided in the graphs.

The subject of assay [4] is Mast cells. The assay is described as follows: FcεRI-induced mast cell degranulation, beta-hexoseaminidase assay (dose response). To be noted: for change of anti-inflammatory effects when 10 μM cannabigerol was added: various concentrations (1 nM to 50 μM) plus 10 μM cannabigerol; for IC50: read-out: IC50 of inhibitory effects on FcεRI-induced degranulation. The protocol: As provided in FIG. 12, anti-inflammatory effects of limonene, and cannabidiol (CBD), were assessed at 11 different concentrations (x-axis: 0, 1, 5, 10, 50, 100, 500, 1000, 5000, 10000, 50000 nM) in the presence (a line with triangles and a line with circles, respectively) or absence of 10 μM cannabigerol (CBG-a line with diamonds and a line with exes, respectively). In this experiment, anti-inflammatory effects of the mixtures were based on effects on mast cell degranulation, measured using a beta-hexoseaminidase assay.
Beta-hexoseaminidase assays: Mast cells were primed with anti-DNPA IgE, and then stimulated with DNP-BSA in the presence of absence of a tested composition as described in Example 2. Mast cell culture medium was collected 60 minutes after exposure to FcεRI and incubated for 45 minutes at 37° C. 25 μl of its supernatant was removed, clarified by microcentrifugation, and transferred to a 96 well plate containing 100 μl per well 1 mM p-N-acetyl glucosamine (Sigma) in 0.05 M citrate buffer pH 4.5. After incubating the mixture for 1 hour at 37° C., the reaction was quenched by addition of 100 μl per well 0.2 M glycine, pH 9.0. Beta-hexosaminidase levels were read as OD at 405 nm.

For assay [5], the system named is Mast cells. The assay can be described thus: Histamine release with cannabidivarin, with or without FcεRI ligation (time course). The protocol:
FIG. 7A provides data from Example 3 illustrating pro-inflammatory effects of cannabidivarin. […] The X-axis represents minutes after application of the FcεRI crosslinking agonist, and the y-axis represents the amount of histamine release (pg/10 million cells). FIG. 7B compares histamine release (pg/10 million cells) measured 10 minutes after exposure to the FcεRI crosslinking agonist (left) or to cannabidivarin without the FcεRI crosslinking agonist (right).
The x-axis represents minutes after application of BSA-DNP and y-axis represents the amount of histamine release (pg/10 million cells). Pro-inflammatory effects of cannabidivarin was even greater than effects of FcεRI ligation; histamine release in response to FcεRI ligation was about 220 pg/10 million cells after 10 minute exposure, while histamine release in response to cannabidivarin (without concurrent FcεRI ligation) was about 340 pg/10 million cells.

Assay [6] relates to RBL2H3 cells. The assay is described as follows: Intracellular free calcium assay (Fluo-4). The conditions noted are these: external calcium 1 mM. As for the experimental part: FIG. 16 provides data from Example 6 illustrating the intracellular free calcium measurements in the presence of external calcium (1 mM) in RBL2H3 cells stimulated in the absence (control vehicle) or presence of 1, 10, or 50 μM CBG. Ionomycin was used as a positive control. Stimuli were added at 20 s.
RBL2H3 cells were washed and incubated with 0.2 μM Fluo-4 for 30 minutes at 37° C. in a standard modified Ringer's solution (145 mM NaCl, 2.8 mM KC1, 10 mM CsCl, +/−1-10 mM CaCl2, 2 mM MgCl2, 10 mM glucose, 10 mM HEPES, pH 7.4, 330 mOsm). Cells were transferred to 96-well plates at 50,000 cells/well and stimulated with 1, 10, or 50 μM CBG. 500 nM ionomycin was used as positive control to induce calcium response. Calcium signals were acquired using a Flexstation 3 (Molecular Devices, Sunnydale, USA) for 3 min. Data was analyzed using SoftMax® Pro 5 (Molecular Devices).

Where [7] appears, read: Antigen at T0, only the named substance(s), otherwise vehicle, 300 nM CBG, 10 μM CBD, 10 μM LY2183240/PF750 or IBMX, normalized to Row L.
Where [8] appears, read: RBL-2H3, read-out: % inhibition of FcεRI-induced degranulation (reduction of histamine secretion).
Setting [9] is: Antigen at T0, cells pre-incubated 3 h with 10 μM FAAH inhibitor LY2183240/PF750 cocktail, 300 nM CBG, 10 μM CBD.
The mark [10] stands for this setting: Antigen at T0, cells pre-incubated 3 h with 10 μM PDEI IBMX, 300 nM CBG, 10 μM CBD.

For `CCCCCCC(C)(C)c1ccc([C@@H]2C[C@H](O)CC[C@H]2CCCO)c(O)c1` [CP55940], in assay [1], the “suppression of histamine release of mast cells” value was “about 30%”.
As to `CC(C)Cn1c(=O)n(C)c(=O)c2[nH]cnc21` [IBMX, 3-isobutyl-1-methylxanthine], the “Outcome (normalized cellular degranulation response)” value is reported as 0.34 in the assay with RBL2H3 cells [2] (setting [7]) and 0.06 with RBL2H3 cells [2] (no Antigen (vehicle at T0), 10 μM pre-incubation 3 h). In the assay with RBL2H3 cells [2] (alone, 10 μM, Row N), the “reduction of FcεRI-induced degranulation” value came out at 3 fold.
For the compound `CCCCCc1cc(O)c2c(c1)OC(C)(CCC=C(C)C)C=C2` (stereo not drawn) [cannabichromene], the inhibition at 10 µM in assay [3] (setting [8]) is at most 20%. For the same compound, the “anti-inflammatory effects on mast cell degranulation (in words)” value (“anti-inflammatory effects … (in words)” below) in assay [3] was “almost no anti-inflammatory effects”.
In the case of `C=C(C)[C@@H]1CCC(C)=C[C@H]1c1c(O)cc(CCCCC)cc1O` [cannabidiol], the inhibition at 10 µM in assay [3] (RBL-2H3, read-out: % inhibition of FcεRI-induced degranulation (reduction of histamine secretion), individual compound alone at 10 μM) was found to be 23%. Also, in the assay on Mast cells [4], the “change of anti-inflammatory effects when 10 μM cannabigerol was added” value is “significantly enhanced their anti-inflammatory effects”. The results for the “Outcome (normalized cellular degranulation response)” value with RBL2H3 cells [2] (setting [9]), in the assay on RBL2H3 cells [2] (setting [10]) and with RBL2H3 cells [2] (setting [7]) were 0.56, 0.32 and 0.54, respectively.
Regarding `C=C(C)[C@@H]1CCC(C)=C[C@H]1c1c(O)cc(CCC)cc1O` [cannabidivarin], the histamine release result in the assay with Mast cells [5] (in response to cannabidivarin without concurrent FcεRI ligation, 10 minute exposure) is on record as “about 340 pg/10 million cells”. For the same compound, in the assay with Mast cells [5] (pretreatment with 10 μM for 10 minutes before FcεRI ligation), the “effect of pretreatment on FcεRI ligation-induced histamine release” value is “significantly enhanced pro-inflammatory effects of FcεRI ligation; also recorded: further enhanced pro-inflammatory effects”. Also, the “increase of FcεRI ligation-induced histamine secretion” value in assay [3] is 26%; in assay [3] (listed as Cannabidivarin), “more than 20%”.
On to `CCCCCc1cc(O)c(C/C=C(\C)CCC=C(C)C)c(O)c1` [cannabigerol], for which the inhibition at 10 µM in assay [3] (setting [8]) was at most 20%. The “anti-inflammatory effects … (in words)” value in assay [3] was “almost no anti-inflammatory effects”; in assay [3] (listed as Cannabigerol) it was “does not have significant effects on mast cell degranulation”. Besides, the “suppression of FcεRI ligation-induced degranulation” value in the assay on Mast cells [4] (alone, at the highest concentration tested (50 μM)) is on record as “less than 10%”. The “Outcome (normalized cellular degranulation response)” value in the assay with RBL2H3 cells [2] (setting [9]) was 0.92; in the assay with RBL2H3 cells [2] (setting [10]), 0.28; in the assay with RBL2H3 cells [2] (setting [7]) it was 0.98. For the same compound, the “effect on intracellular calcium” value in the assay on RBL2H3 cells [6] (50 μM) is given as “moderate increase in intracellular calcium”; in the assay with RBL2H3 cells [6] (lower doses (1 and 10 μM)) it was “did not significantly alter the intracellular calcium”.
Take `CCCCCc1cc(O)c2c(c1)OC(C)(C)c1ccc(C)cc1-2` [cannabinol]: the inhibition at 10 µM in assay [3] (setting [8]) is at most 20%.
`C=C(C)[C@H]1CC=C(C)CC1` [limonene]: in assay [3] (individual compound alone at 10 μM), the “% inhibition of FcεRI-induced degranulation (reduction of histamine secretion)” value was determined as 24%. The IC50 in the assay on Mast cells [4] (alone) was about 480 nM; with Mast cells [4] (in combination with 10 μM cannabigerol (CBG)), about 100 nM. Besides, the “change of anti-inflammatory effects when 10 μM cannabigerol was added” value with Mast cells [4] is listed as “significantly enhanced their anti-inflammatory effects”.
As for `C=CC(C)(O)CCC=C(C)C` (stereo not drawn) [linalool], the “anti-inflammatory effects … (in words)” value in assay [3] is given as “almost no anti-inflammatory effects”.
Turning to `C=CC(C)(O)CCC=C(C)CCC=C(C)C` (stereo not drawn) [nerolidol], in assay [3], the “anti-inflammatory effects … (in words)” value is listed as “almost no anti-inflammatory effects”.
Same read-out and setting: then `C/C(=C\CO)CCC[C@H](C)CCC[C@H](C)CCCC(C)C` [phytol], with “almost no anti-inflammatory effects”.
For the compound `CC1=CCC2CC1C2(C)C` (stereo not drawn) [pinene], the “anti-inflammatory effects … (in words)” value in assay [3] is given as “almost no anti-inflammatory effects”.
